In US20220395553A1, “CXCR4 ANTAGONIST PEPTIDES” (COHBAR, INC., priority 2019, published 2022):
Square brackets hold non-standard residues; d marks the D form. Peptide text beside a SMILES is read from it.

Assays:
[1] = system: CXCR4/CXCL12 induced p-MEK; assay: CXCR4/CXCL12 induced p-MEK in Jurkat cells (ELISA); type: cell-based, human; conditions: 5 nM CXCL12, 5 min
Method: The assay was performed following a protocol similar to that described by Peng, et al., Mol Cancer Ther., 14 480-90 (2015), incorporated herein by reference. […] Jurkat cells were resuspended in standard growth media (RPMI+GlutaMax media; Gibco/Thermo Fisher Scientific; Gaithersburg, Md.) containing 10% FBS and 1% penicillin/streptomycin. Assays were performed using fresh or conditioned media (media cultured overnight in presence of Jurkat cells) to resuspend cells at density of 2×10^6 cells/ml and […] of cell suspension was immediately placed in 1.7 ml microfuge tubes. […] Following the 5 min incubation, cells were centrifuged at 1000×g for 4 min at 4° C. The supernatant was removed and the cells were rinsed with 1 ml of HBSS containing calcium and magnesium. The HBSS was removed and the cells were immediately lysed in 150 l of lysis buffer included with Phospho-MEK1 (Ser217/221) Sandwich ELISA kit (Cell Signaling Technology; Danvers, Mass.); lysis buffer was supplemented with 1 m M PMSF (Millipore-Sigma; Saint Louis, Mo.) and Halt protease/phosphatase inhibitor cocktail (Thermo-Fisher; Waltham, Mass.) prior to use. The samples were then placed on ice for 10 min and vortexed periodically. Following the lysis step, the samples were centrifuged at 12,500 rpm for 10 min at 4° C. p-MEK expression in each of the samples was then measure using Phospho-MEK1 (Ser217/221) Sandwich ELISA kit according to manufacturer's instructions. Absorbance was measured using a Cytation 3 plate reader at […] (BioTek; Winooski, Vt.).

[2] = target: T1, human CXCR4 (Homo sapiens, UniProt P61073); assay: CXCR4/CXCL12 binding, HTRF format, single concentration (Example 23); design: host or cells: HEK293 (Tag-lite CXCR4 cells, frozen aliquots, transient expression); conditions: 15 nM CXCR4R fluorescent probe, 3 hours, HEK293 Tag-lite CXCR4 cells
Procedure, shortened: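 Tag-lite CXCR4 cells were exposed to peptide at 400 nM final with 15 nM (EC80) fluorescent CXCR4 probe for 3 h at room temperature. HTRF was read, and the 665/620 nm ratio ×10,000 measured probe bound to terbium-labelled receptor.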

[3] = target: T1, human CXCR4; assay: IC50 for inhibition of CXCR4 activation, β-Arrestin recruitment (Example 22); type: cell-based; design: host or cells: C2C12 (mouse myoblast) CXCR4 β-Arrestin PathHunter cell line
Method: The assay was run with the DiscoverX protocol. β-Arrestin recruitment assays were performed by Eurofins-DiscoverX (Fremont, Calif.) using C2C12 CXCR4 β-Arrestin cell line (co-expressing ProLink tagged human CXCR4 and Enzyme Acceptor tagged β-Arrestin) and PathHunter detection kit. Peptides were initially prepared as 1 mM stock in H2O and tested in ten (10)-step concentration response curves using 3-fold dilution steps with 1 μM as highest concentration; a concentration range of 1 μM-0.05 nM was tested. C2C12 CXCR4 β-Arrestin cells were seed onto 384-well plates in standard medium. […] At the end of the 90 min incubation period, β-Arrestin recruitment in response to various treatments was quantified using a chemiluminescent complementation reporter assay to measure association of tagged human […] (ProLink tag) and tagged β-Arrestin (Enzyme Acceptor tag).

T1 sequence (P61073 whole entry): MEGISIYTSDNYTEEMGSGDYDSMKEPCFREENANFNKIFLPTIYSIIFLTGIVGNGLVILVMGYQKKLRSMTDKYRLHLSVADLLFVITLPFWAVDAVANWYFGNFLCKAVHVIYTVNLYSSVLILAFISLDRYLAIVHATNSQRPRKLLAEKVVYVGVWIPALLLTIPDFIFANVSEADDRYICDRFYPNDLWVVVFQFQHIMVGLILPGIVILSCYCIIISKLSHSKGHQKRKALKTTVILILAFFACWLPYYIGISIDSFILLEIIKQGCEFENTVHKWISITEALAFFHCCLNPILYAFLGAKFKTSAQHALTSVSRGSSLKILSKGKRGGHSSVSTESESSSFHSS

Structure (SMILES) | Percent Inhibition of CXCR4/CXCL12 Binding (400 nM peptide) [2] | IC50 [3] | Percent Inhibition of CXCR4/CXCL12 Induced p-MEK (100 nM Test Article) [1] | Percent Inhibition of CXCR4/CXCL12 Induced p-MEK (1 μM Test Article) [1]
CC(C)C[C@H](NC(=O)[C@@H](NC(=O)[C@H](CO)NC(=O)[C@H](CCCNC(=N)N)NC(=O)[C@@H](NC(=O)[C@H](CO)NC(=O)[C@H](Cc1c[nH]cn1)NC(=O)[C@H](Cc1c[nH]cn1)NC(=O)[C@H](Cc1ccc(O)cc1)NC(=O)[C@H](CCCNC(=N)N)NC(=O)[C@H](CCCNC(=N)N)NC(=O)[C@@H](N)CC(C)C)C(C)C)[C@@H](C)O)C(=O)N[C@@H](CCCNC(=N)N)C(=O)N1CCC[C@H]1C(=O)N[C@@H](Cc1ccc(O)cc1)C(=O)N[C@H](C(=O)N[C@@H](CCCCN)C(=O)O)[C@@H](C)O [compound 71] (H-LRRYHHSVRSTLRPYTK-OH; N-terminus and C-terminus assumed) | 29% | 3 nM | 56% | 94%
CC(C)C[C@H](NC(=O)[C@H](CO)NC(=O)[C@H](CO)NC(=O)[C@H](CCCNC(=N)N)NC(=O)[C@@H](NC(=O)[C@H](CO)NC(=O)[C@H](Cc1c[nH]cn1)NC(=O)[C@H](Cc1c[nH]cn1)NC(=O)[C@H](Cc1ccc(O)cc1)NC(=O)[C@H](CCCNC(=N)N)NC(=O)[C@H](CCCNC(=N)N)NC(=O)[C@@H](N)CC(C)C)C(C)C)C(=O)N[C@@H](CCCNC(=N)N)C(=O)N1CCC[C@H]1C(=O)N[C@@H](Cc1ccc(O)cc1)C(=O)N[C@@H](CO)C(=O)N[C@@H](CCCCN)C(=O)O [compound 72] (H-LRRYHHSVRSSLRPYSK-OH; N-terminus and C-terminus assumed) | 6% | 5 nM | 8% | 86%
CC(C)C[C@H](NC(=O)[C@@H](NC(=O)[C@H](CO)NC(=O)[C@H](CCCNC(=N)N)NC(=O)[C@@H](C)NC(=O)[C@H](CO)NC(=O)[C@H](Cc1c[nH]cn1)NC(=O)[C@H](Cc1c[nH]cn1)NC(=O)[C@H](Cc1ccc(O)cc1)NC(=O)[C@H](CCCNC(=N)N)NC(=O)[C@H](CCC(=O)O)NC(=O)[C@@H](N)CC(C)C)[C@@H](C)O)C(=O)N[C@@H](CCCNC(=N)N)C(=O)N1CCC[C@H]1C(=O)N[C@@H](Cc1ccc(O)cc1)C(=O)N[C@H](C(=O)N[C@@H](CCCCN)C(=O)O)[C@@H](C)O [compound 77] (H-LERYHHS[dA]RSTLRPYTK-OH; N-terminus and C-terminus assumed) | 77% | 4 nM | 7% | 68%
CC(C)C[C@H](NC(=O)[C@H](CO)NC(=O)[C@H](CO)NC(=O)[C@H](CCCNC(=N)N)NC(=O)[C@@H](C)NC(=O)[C@H](CO)NC(=O)[C@H](Cc1c[nH]cn1)NC(=O)[C@H](Cc1c[nH]cn1)NC(=O)[C@H](Cc1ccccc1)NC(=O)[C@H](CCCNC(=N)N)NC(=O)[C@H](CCC(=O)O)NC(=O)[C@@H](N)CC(C)C)C(=O)N[C@@H](CCCNC(=N)N)C(=O)N1CCC[C@H]1C(=O)N[C@@H](Cc1ccc(O)cc1)C(=O)N[C@H](C(=O)N[C@@H](CCCCN)C(=O)O)[C@@H](C)O [compound 55] (H-LERFHHS[dA]RSSLRPYTK-OH; N-terminus and C-terminus assumed) | 56% | 4 nM | 16% | 72%
CC(C)C[C@H](NC(=O)[C@H](CO)NC(=O)[C@H](CO)NC(=O)[C@H](CCCNC(=N)N)NC(=O)[C@@H](NC(=O)[C@H](CO)NC(=O)[C@H](Cc1c[nH]cn1)NC(=O)[C@H](Cc1c[nH]cn1)NC(=O)[C@H](Cc1ccc(O)cc1)NC(=O)[C@H](CC(=O)O)NC(=O)[C@H](CCCNC(=N)N)NC(=O)[C@@H](N)CC(C)C)C(C)C)C(=O)N[C@@H](CCCNC(=N)N)C(=O)N1CCC[C@H]1C(=O)N[C@@H](Cc1ccc(O)cc1)C(=O)N[C@H](C(=O)N[C@@H](CCCCN)C(=O)O)[C@@H](C)O [compound 36] (H-LRDYHHSVRSSLRPYTK-OH; N-terminus and C-terminus assumed) | −11% | > 1000 nM | 22% | −5%
CC(C)C[C@H](NC(=O)[C@H](CO)NC(=O)[C@H](CO)NC(=O)[C@H](CCCNC(=N)N)NC(=O)[C@@H](NC(=O)[C@H](CO)NC(=O)[C@H](Cc1c[nH]cn1)NC(=O)[C@H](Cc1c[nH]cn1)NC(=O)[C@H](Cc1ccc(O)cc1)NC(=O)[C@H](CCCNC(=N)N)NC(=O)[C@H](CCC(=O)O)NC(=O)[C@@H](C)N)C(C)C)C(=O)N[C@@H](CCCNC(=N)N)C(=O)N1CCC[C@H]1C(=O)N[C@@H](Cc1ccc(O)cc1)C(=O)N[C@H](C(=O)N[C@@H](CCCCN)C(=O)O)[C@@H](C)O [compound 34] (H-[dA]ERYHHSVRSSLRPYTK-OH; N-terminus and C-terminus assumed) | −17% | > 1000 nM | −1% | 2%

More lines, in order of falling IC50 [3], values ahead:

Percent Inhibition of CXCR4/CXCL12 Binding (400 nM peptide) [2] | IC50 [3] | Structure (SMILES) | Percent Inhibition of CXCR4/CXCL12 Induced p-MEK (100 nM Test Article) [1] | Percent Inhibition of CXCR4/CXCL12 Induced p-MEK (1 μM Test Article) [1]
76% | 5 nM | CC(C)C[C@H](NC(=O)[C@H](CO)NC(=O)[C@H](CO)NC(=O)[C@H](CCCNC(=N)N)NC(=O)[C@@H](C)NC(=O)[C@@H](NC(=O)[C@H](Cc1c[nH]cn1)NC(=O)[C@H](Cc1c[nH]cn1)NC(=O)[C@H](Cc1ccc(O)cc1)NC(=O)[C@H](CCCNC(=N)N)NC(=O)[C@H](CCC(=O)O)NC(=O)[C@@H](N)CC(C)C)[C@@H](C)O)C(=O)N[C@@H](CCCNC(=N)N)C(=O)N1CCC[C@H]1C(=O)N[C@@H](Cc1ccc(O)cc1)C(=O)N[C@H](C(=O)N[C@@H](CCCCN)C(=O)O)[C@@H](C)O [compound 40] (H-LERYHHT[dA]RSSLRPYTK-OH; N-terminus and C-terminus assumed) | 33% | 94%
81% | 3 nM | CC(C)C[C@H](NC(=O)[C@H](CO)NC(=O)[C@H](CO)NC(=O)[C@H](CCCNC(=N)N)NC(=O)[C@@H](C)NC(=O)[C@H](CO)NC(=O)[C@H](Cc1c[nH]cn1)NC(=O)[C@H](Cc1c[nH]cn1)NC(=O)[C@H](Cc1ccc(O)cc1)NC(=O)[C@H](CCCNC(=N)N)NC(=O)[C@H](CCC(=O)O)NC(=O)[C@@H](N)CC(C)C)C(=O)N[C@@H](CCCNC(=N)N)C(=O)NCC(=O)N[C@@H](Cc1ccc(O)cc1)C(=O)N[C@H](C(=O)N[C@@H](CCCCN)C(=O)O)[C@@H](C)O [compound 81] (H-LERYHHS[dA]RSSLRGYTK-OH; N-terminus and C-terminus assumed) | −16% | 20%
−3% | 3 nM | CC(C)C[C@H](NC(=O)[C@H](CO)NC(=O)[C@H](CO)NC(=O)[C@H](CCCNC(=N)N)NC(=O)[C@@H](NC(=O)[C@H](CO)NC(=O)[C@H](Cc1c[nH]cn1)NC(=O)[C@H](Cc1c[nH]cn1)NC(=O)[C@H](Cc1ccc(O)cc1)NC(=O)[C@H](CCCNC(=N)N)NC(=O)[C@H](CCCNC(=N)N)NC(=O)[C@@H](N)CC(C)C)C(C)C)C(=O)N[C@@H](CCCNC(=N)N)C(=O)N1CCC[C@H]1C(=O)N[C@@H](Cc1ccccc1)C(=O)N[C@H](C(=O)N[C@@H](CCCCN)C(=O)O)[C@@H](C)O [compound 59] (H-LRRYHHSVRSSLRPFTK-OH; N-terminus and C-terminus assumed) | 43% | 93%
